# Source: patent publication US10654847B2, “Substituted 2-(4-heterocyclylbenzyl)isoindolin-1-one analogs as positive allosteric modulators of the muscarinic acetylcholine receptor M1” (Vanderbilt University, priority 2011, dated 2020)
# Read-outs that look alike come from different tables or passages of the source.
# Target: T1, mAChR M1 (UniProt P11229)
# T1 sequence (P11229 1-460): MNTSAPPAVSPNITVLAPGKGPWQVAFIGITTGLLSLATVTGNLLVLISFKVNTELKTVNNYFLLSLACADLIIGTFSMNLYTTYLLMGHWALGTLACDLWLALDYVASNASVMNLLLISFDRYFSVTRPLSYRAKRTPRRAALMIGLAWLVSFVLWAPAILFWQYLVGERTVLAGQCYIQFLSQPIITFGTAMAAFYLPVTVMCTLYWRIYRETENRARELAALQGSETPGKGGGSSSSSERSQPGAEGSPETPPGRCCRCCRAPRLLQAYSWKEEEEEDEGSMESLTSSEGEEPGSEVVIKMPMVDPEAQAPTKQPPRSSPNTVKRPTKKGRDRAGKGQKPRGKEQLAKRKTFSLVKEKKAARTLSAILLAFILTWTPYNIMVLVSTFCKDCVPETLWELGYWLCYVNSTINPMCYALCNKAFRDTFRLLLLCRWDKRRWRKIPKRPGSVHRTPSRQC
# Test: mAChR M1 cell-based functional assay (calcium mobilization, potentiation of EC20 acetylcholine response)
# Settings: for Emax (%): % ACh maximum at 30 μM, mAChR M1-expressing CHO-K1 cells, calcium flux; for pEC50 / EC50: positive allosteric modulation of EC20 ACh response, mAChR M1 CHO-K1 cells; for pEC50: <5 estimated where no plateau; for EC50: >10 μM estimated where no plateau
# Method: Chinese hamster ovary (CHO-K1) cells stably expressing rat (r)M1 were purchased from the American Type Culture Collection and cultured according to their indicated protocol. […] To make stable rM2, hM2, rM3, hM4, and rM4 cell lines for use in calcium mobilization assays, these cells also were stably transfected with a chimeric G-protein (Gqi5) (provided by B. R. Conklin, University of California, San Francisco) using Lipofectamine 2000. rM1, hM1, rM3, hM3, rM5, and hM5 cells were grown in Ham's F-12 medium containing 10% heat-inactivated fetal bovine serum (FBS), 20 mM HEPES, and 50 μg/mL G418 sulfate. rM2-Gqi5, hM2-Gqi5, and hM4-Gqi5 cells were grown in the same medium also containing 500 μg/mL Hygromycin B. Stable rM4-Gqi5 cells were grown in DMEM containing 10% heat-inactivated FBS, 20 mM HEPES, 400 μg/mL G418 sulfate, and 500 μg/mL Hygromycin B.
# For high throughput measurement of agonist-evoked increases in intracellular calcium, CHO-K1 cells stably expressing muscarinic receptors were plated in growth medium lacking G418 and hygromycin at 15,000 cells/20 μL/well in Greiner 384-well black-walled, tissue culture (TC)-treated, clear-bottom plates (VWR). Cells were incubated overnight at 37° C. and 5% CO2. […] Compound master plates were formatted in an 11 point CRC format (1:3 dilutions) in 100% DMSO with a starting concentration of 10 mM using the BRAVO liquid handler (Agilent). Test compound CRCs were then transferred to daughter plates (240 nL) using the Echo acoustic plate reformatter (Labcyte, Sunnyvale, Calif.) and then diluted into assay buffer (40 μL) to a 2× stock using a Thermo Fisher Combi (Thermo Fisher Scientific, Waltham, Mass.).
# Calcium flux was measured using the Functional Drug Screening System (FDSS) 6000 (Hamamatsu Corporation, Tokyo, Japan) as an increase in the fluorescent static ratio. Compounds were applied to cells (20 μL, 2×) using the automated system of the FDSS 6000 at 4 s into the 300 s protocol and the data were collected at 1 Hz. […] Agonist activity was analyzed as a concentration-dependent increase in calcium mobilization upon compound addition. Positive allosteric modulator activity was analyzed as a concentration-dependent increase in the EC20 acetylcholine response. Antagonist activity was analyzed as a concentration-dependent decrease in the EC80 acetylcholine response. Concentration-response curves were generated using a four-parameter logistical equation in XLfit curve fitting software (IDBS, Bridgewater, N.J.) for Excel (Microsoft, Redmond, Wash.) or Prism (GraphPad Software, Inc., San Diego, Calif.).
# The above described assay was also operated in a second mode where an appropriate fixed concentration of the present compounds were added to the cells after establishment of a fluorescence baseline for about 3 seconds, and the response in cells was measured. […] Data were reduced as described above and the EC50 values for the agonist in the presence of test compound were determined by nonlinear curve fitting. A decrease in the EC50 value of the agonist with increasing concentrations of the present compounds (a leftward shift of the agonist concentration-response curve) is an indication of the degree of muscarinic positive allosteric modulation at a given concentration of the present compound. An increase in the EC50 value of the agonist with increasing concentrations of the present compounds (a rightward shift of the agonist concentration response curve) is an indication of the degree of muscarinic antagonism at a given concentration of the present compound. The second mode also indicates whether the present compounds also affect the maximum response of the muscarinic receptor to agonists.
# The calcium mobilization assay was also used to determine “efficacy”.
structure (smiles),measurement,setting,value
O=C1c2ccccc2CN1Cc1ccc(-c2c[nH]nc2C(F)(F)F)cc1F [Example B16],Emax (%),,38%
same,pEC50,,<5.00
same,EC50,read-out: EC50,> 10000 nM
COc1ncccc1-c1ccc(CN2Cc3ncccc3C2=O)c(F)c1 [Example B33],Emax (%),,31%
same,pEC50,,<5.00
same,EC50,read-out: EC50,> 10000 nM
Cc1nnc(-c2ccc(CN3Cc4ccccc4S3(=O)=O)cc2)o1 [Example B123],Emax (%),,<30%
same,pEC50,,<5.00
same,EC50,read-out: EC50,> 10000 nM
O=C1c2cccnc2CN1Cc1c(F)cc(-c2ccc3cnccc3c2)cc1F [Example B97],Emax (%),,62%
same,pEC50,,6.23
same,EC50,read-out: EC50,589 nM
Cn1cc2cc(Nc3ccc(CN4Cc5ncccc5C4=O)c(F)c3)ccc2n1 [Example B58],Emax (%),,66%
same,pEC50,,5.43
same,EC50,read-out: EC50,3720 nM
Cc1cc(-c2ccc(CN3Cc4ncccc4C3=O)c(F)c2)cnc1F [Example B34],Emax (%),,37%
same,pEC50,,5.60
same,EC50,read-out: EC50,2510 nM
Cn1cc2c(-c3ccc(F)c(CN4Cc5ncccc5C4=O)c3)cccc2n1 [Example B110],Emax (%),,61%
same,pEC50,,5.71
same,EC50,read-out: EC50,1950 nM
Cn1cc2c(-c3cc(F)c(CN4Cc5ncccc5C4=O)cc3F)cccc2n1 [Example B87],Emax (%),,68%
same,pEC50,,5.22
same,EC50,read-out: EC50,6030 nM
CN1Cc2ccc(-c3cc(F)c(CN4Cc5ncccc5C4=O)c(F)c3)cc2C1 [Example B107],Emax (%),,56%
same,pEC50,,5.76
same,EC50,read-out: EC50,1740 nM
Cn1cc(-c2ccc(CN3Cc4ccccc4S3(=O)=O)c(F)c2)cn1 [Example B23],Emax (%),,63%
same,pEC50,,<5.00
same,EC50,read-out: EC50,> 10000 nM
Cc1nn(C)cc1-c1ccc(CN2Cc3ccccc3C2=O)c(F)c1 [Example B2],Emax (%),,78%
same,pEC50,,5.82
same,EC50,read-out: EC50,1500 nM
Cn1cc2cc(-c3ccc(F)c(CN4Cc5ncccc5C4=O)c3)ccc2n1 [Example B111],Emax (%),,42%
same,pEC50,,5.63
same,EC50,read-out: EC50,2340 nM
Cc1cc(-c2ccncc2)ccc1CN1Cc2cccnc2C1=O [Example B84],Emax (%),,41%
same,pEC50,,<5.00
same,EC50,read-out: EC50,> 10000 nM
Cn1cc2cc(-c3ccc(CN4Cc5cccnc5C4=O)c(F)c3)ccc2n1 [Example B71],Emax (%),,72%
same,pEC50,,6.15
same,EC50,read-out: EC50,708 nM
O=C1c2cccnc2CN1Cc1ccc(-c2cccc3cccnc23)cc1F [Example B38],Emax (%),,26%
same,pEC50,,<5.00
same,EC50,read-out: EC50,> 10000 nM
O=C1c2cccnc2CN1Cc1c(F)cc(-c2ccc3c(c2)C2(OCCO2)C(=O)N3)cc1F [Example B101],Emax (%),,48%
same,pEC50,,<5.00
same,EC50,read-out: EC50,> 10000 nM
CN1CCc2cc(-c3ccc(CN4Cc5ncccc5C4=O)c(F)c3)ccc21 [Example B55],Emax (%),,60%
same,pEC50,,5.64
same,EC50,,2290 nM
O=C1c2ncccc2CN1Cc1ccc(-c2cnc3ccccc3c2)cc1F [Example B66],Emax (%),,52%
same,pEC50,,5.84
same,EC50,read-out: EC50,1440 nM
O=S1(=O)c2ccccc2CN1Cc1ccc(-c2coc(-c3ccccc3)n2)cc1 [Example B120],Emax (%),,<30%
same,pEC50,,<5.00
same,EC50,read-out: EC50,> 10000 nM
O=C1c2cccnc2CN1Cc1c(F)cc(-c2cccc3cnccc23)cc1F [Example B99],Emax (%),,41%
same,pEC50,,<5.00
same,EC50,read-out: EC50,> 10000 nM
O=C1c2cccnc2CN1Cc1ccc(-c2ccnc(F)c2)cc1F [Example B14],Emax (%),,36%
same,pEC50,,<5.00
same,EC50,read-out: EC50,> 10000 nM
O=C1c2cccnc2CN1Cc1c(F)cc(-c2cnc3ccccn23)cc1F [Example B88],Emax (%),,63%
same,pEC50,,<5.00
same,EC50,read-out: EC50,> 10000 nM
O=C1c2ccccc2CN1Cc1ccc(-n2cncn2)cc1F [Example B126],Emax (%),,<30%
same,pEC50,,<5.00
same,EC50,read-out: EC50,> 10000 nM
CN1CCc2cc(-c3cc(F)c(CN4Cc5ncccc5C4=O)c(F)c3)ccc21 [Example B103],Emax (%),,56%
same,pEC50,,5.83
same,EC50,read-out: EC50,1480 nM
Cc1cc(-c2ccc(CN3Cc4cccnc4C3=O)c(Cl)c2)cnc1Cl [Example B75],Emax (%),,42%
same,pEC50,,5.70
same,EC50,read-out: EC50,2000 nM
O=C1c2cccnc2CN1Cc1ccc(-c2cccnc2)cc1F [Example B47],Emax (%),,54%
same,pEC50,,5.22
same,EC50,read-out: EC50,6030 nM
Cn1cc2cc(-c3ccc(CN4Cc5ncccc5C4=O)cc3)ccc2n1 [Example B59],Emax (%),,56%
same,pEC50,,6.30
same,EC50,read-out: EC50,501 nM
Cc1nc(-c2ccc(CN3Cc4ccccc4S3(=O)=O)cc2)no1 [Example B119],Emax (%),,<30%
same,pEC50,,<5.00
same,EC50,read-out: EC50,> 10000 nM
Cc1noc(-c2ccc(CN3Cc4ccccc4S3(=O)=O)cc2)n1 [Example B118],Emax (%),,<30%
same,pEC50,,<5.00
same,EC50,read-out: EC50,> 10000 nM
Cn1nccc1-c1ccc(CN2Cc3ccccc3C2=O)c(F)c1 [Example B19],Emax (%),,40%
same,pEC50,,<5.00
same,EC50,read-out: EC50,> 10000 nM
Cn1cc2c(-c3ccc(CN4Cc5cccnc5C4=O)c(F)c3)cccc2n1 [Example B62],Emax (%),,72%
same,pEC50,,6.07
same,EC50,read-out: EC50,851 nM
O=C1c2cccnc2CN1Cc1ccc(-c2ccc3cc[nH]c3c2)cc1F [Example B28],Emax (%),,34%
same,pEC50,,<5.00
same,EC50,read-out: EC50,> 10000 nM
O=S1(=O)c2ccccc2CN1Cc1ccc(Oc2ccccc2)cc1 [Example B124],Emax (%),,<30%
same,pEC50,,<5.00
same,EC50,read-out: EC50,> 10000 nM
O=C1c2cccnc2CN1Cc1ccc(-c2ccc3ccncc3c2)cc1F [Example B49],Emax (%),,68%
same,pEC50,,5.81
same,EC50,read-out: EC50,1550 nM
O=C1c2cccnc2CN1Cc1c(F)cc(-c2ccc3cncn3c2)cc1F [Example B100],Emax (%),,71%
same,pEC50,,5.88
same,EC50,read-out: EC50,1320 nM
O=C1c2ncccc2CN1Cc1ccc(-c2cccc3ncccc23)cc1F [Example B77],Emax (%),,42%
same,pEC50,,5.74
same,EC50,read-out: EC50,1820 nM
O=C1c2cccnc2CN1Cc1ccc(-c2ccc3nccn3c2)cc1F [Example B57],Emax (%),,69%
same,pEC50,,5.68
same,EC50,read-out: EC50,2090 nM
O=C1c2cccnc2CN1Cc1ccc(-c2ccc3ncccc3c2)cc1F [Example B48],Emax (%),,65%
same,pEC50,,6.08
same,EC50,read-out: EC50,832 nM
Cn1cc2ccc(-c3ccc(CN4Cc5ncccc5C4=O)c(F)c3)cc2n1 [Example B35],Emax (%),,80%
same,pEC50,,5.71
same,EC50,read-out: EC50,1950 nM
O=C1c2cccnc2CN1Cc1ccc(-c2ccc(Cl)nc2)cc1F [Example B30],Emax (%),,40%
same,pEC50,,5.46
same,EC50,read-out: EC50,3470 nM
